Data published in patent publication US9795585B2, “Methods of using L-butylphthalide for the prevention and treatment of cerebral ischemia disease” (priority 2004, dated 2017).
Where “and” joins values, the source holds several entries; their conditions need not be identical. Equal values may be shown once.

Columns and labels:
[1] = system: ischemic region (corpus striatum) of rats with blocked cerebral artery; experiment: Focal cerebral blood flow after ligation of cerebral artery (method of Tamura); type: in vivo, Male wistar rats
Method: (§1) Experimental Animals: Male wistar rats.
(§2) Experimental Equipments: SXP operating microscope, 62TZ-V model high frequency electrotome, solid positioner, Diamond Electro-Tech chemical microsensor 1231, two channel physiological parameter recorder.
(§3) Experimental Methods: • (1) dl-, d-, and l-NBP (15 and 30 mg/kg) and the vehicle were orally administered to the normal rats, and the changes of cerebral blood flow at different time after the administration were measured. • (2) ligation of cerebral artery was conducted on rats according to the method of Tamura. Oral administration was performed at 10 min after the operation. The rats were divided into 9 groups, which were normal group, pseudo-operation group, vehicle control group, and groups of dl-, d-, and l-NBP (15 and 30 mg/kg).

[2] = system: cerebral apoplexy in spontaneous hypertension rats; experiment: Cerebral apoplexy in salt-loaded spontaneous hypertensive rats; type: in vivo
Method: Experimental Animals: spontaneous hypertensive rats of 6 weeks old. Experimental Methods: Spontaneous hypertensive rats of 6 weeks old were divided into 8 groups with 10 rats per group. 0.8 to 0.9 g per day of common salt was administered starting from week 6. […] The scores of neurological deficit and the time of death were recorded.

[3] = system: cerebral ischemia-reperfusion rats; experiment: Behavioral disorder and cerebral infarct area in cerebral ischemia-reperfusion rats (MCAO by nylon suture, 1.5 h); type: in vivo, male Wistar rats; conditions: for neurological deficit scores (effect in words) / potency on neurological deficit scores compared among l, dl and d-NBP: 24 hours after intravenous injection; for reduction of cerebral infarct area / ED50 (cerebral infarct area): i.v., vs model control group; for cerebral infarct area (effect in words): intravenous administration, effect increases with dose
From the text: Experimental Animal: The same as Example 1
Experimental Equipments: The same as Example 7
Experimental Methods: The rats were anesthetized, and fixed in lateral decubitus position. Under the operating microscope, a midline neck skin incision was made to expose the left common cartotid artery. The surrounding nerves and fascia from the bifurcation of common carotid artery to the vascular of basis cranii were removed.
The internal carotid artery was then separated and carefully separated free from vagus nerve. Pterygopalatine artery was ligated at the root of the internal carotid artery. A 6# needle for injection containing 3# nylon suture (diameter of 0.285 mm) was punctured into the free end of the external carotid artery, advancing the nylon suture into the blood vascular. The needle was carefully withdrawn, and the nylon suture was guided into the internal carotid artery from the distal end of the external carotid artery up till to Willis ring, so as to effectively block the middle cerebral artery.
Depending on the body weight, the distance from the inserted nylon suture to the bifurcation of common carotid artery was 18 to 20 mm. The free end of the external carotid artery and the nylon suture therein were ligated together, in order to prevent bleeding. The muscle and the skin were then sutured layer by layer, and penicillin was dropped to prevent infection. To effectively block the middle cerebral artery, the tip of the nylon suture was made round by burning with the flame, and coated with 0.1% of poly-L-lysine. The nylon suture was baked in a 60° C. oven for 1 hour.
Due to the ability of poly-L-lysine to binding the cell and the protein to the plastic surface, and thus allow the negative charged nylon suture changing into a positive charged one and attract the anion ionic part of the endothelial cell, the nylon suture was closely bond to the endothelial surface, so as to prevent the leakage of the blood from the surrounding of the suture. Only the internal carotoid artery was separated from the animals of pseudo-operation group.
At 1.5 hours after the initiation of MCAO, the nylon suture within the lumen of the internal carotoid artery was carefully withdrawn, and the internal carotoid artery was allowed to reperfusion. The rats were then placed back into the cage.

[4] = system: permanent cerebral ischemic rats; experiment: Behavioral disorder and cerebral infarct area in permanent cerebral ischemic rats (FeCl3 on middle cerebral artery); type: in vivo, Wistar rats; conditions: for reduction of cerebral infarct area / neurological deficit scores (effect in words) / ED40 (cerebral infarct area): vs model control group; for decrease of neurological deficit scores / ED30 (neurological deficit scores): i.v., 24 hours after administration; for neurological deficit scores (effect in words): intravenous injection
Method: Experimental Animal: The same as Example 1. Experimental Equipments: COOLPIX955 digital camera, 722 grating spectroscope, XHF-1 high-speed disperser, YKH-II liquid high-speed mixer, WZ-50C2 micro infusion pump. Experimental Methods: Wistar rats were anesthetized by intraperitoneally injecting 12% chloral hydrate in 350 mg/kg, and fixed in lateral decubitus position. The skin at the midpoint on the line from exterior auditory canal to canthus was cut. The muscle was separated layer by layer to expose zygomatic arch and the squamous part of temporal bone. The zygomatic arch was scissored and then placed under an operating microscope. A window of 2 mm diameter was drilled by using a dentistry drill at a position of 2 mm under the anterior joint between zygomatic arch and the squamous part of temporal bone, so as to expose the middle cerebral artery. A little piece of filter paper was applied onto the middle artery, and 10 μl of 50% FeCl3 aqueous solution was dripped onto the filter paper. The filter paper was removed after 30 min, and washed with physiological brine. Two to three drops of penicillin (1.6×10^5 U/mL) were added so as to prevent infection of the cut. Then the cut was sutured layer by layer.

[5] = system: cerebral injury-induced cerebral ischemia in rats; experiment: Neural symptoms induced by cerebral injury in rats; type: in vivo, male Wistar rats; conditions: 50 mg/kg oral 5 minutes after cerebral injury; scored after 24 hours; vs vehicle control
Method: Experimental Animals: male Wistar rats
Experimental Methods: Cerebral injury in rats was caused by allowing a cone-shaped metal object weighing 220 g to freely fall from a position of 30 cm height and to strike the skull cap behind the left coronal suture. dl-, d-, and l-NBP (50 mg/kg) and the vehicle (control group) were orally administered after 5 minutes, and the behavioral changes were scored after 24 hours.

[6] = system: cerebral edema induced by cerebral artery ligation in rats; experiment: Cerebral edema induced by ligation of right middle cerebral artery; type: in vivo, male Wistar rats
Method: Experimental Animals: the same as Example 1. Experimental Equipments: Oxygen analyzer. Experimental Methods: Cerebral edema was induced by the ligation of right middle cerebral artery of rats. After 15 minutes, dl-, d-, and l-NBP (40 and 80 mg/kg) were orally administered. The rats were sacrificed after 24 hours. The forebrain was removed, and the cerebral hemispheres on the left and right side were weighed. Dry weight was obtained by baking for 24 hours under 100° C. The weight of water in the brain tissue was thus calculated by subtracting of dry weight from wet weight. Then, the tissues was nitrified for 4 hours, and pH was adjusted by using HCl. Next, the ion selective electrode was connected onto the oxygen analyzer, and the concentrations of Na^+ and K^+ in the brain tissue were measured.

normal rats = type: in vivo, Male wistar rats; conditions: 15 and 30 mg/kg oral; for cerebral blood flow rate in normal rats: 30 minutes after administration
Method: as §1, §2, §3

[7] = 40 and 80 mg/kg oral 15 minutes after ligation, sacrificed after 24 hours
[8] = 25 and 50 mg/kg/d oral until 3 weeks after apoplexy, dose-dependent

Compound: CCCCC1OC(=O)c2ccccc21 (racemic) [dl-NBP, butylphthalide]
- focal blood flow in the corpus striatum on the side of the blocked cerebral artery ([1]; 30 mg/kg oral 10 min after operation, similar increase seen): no statistical significance
- preventive and therapeutic effect on cerebral apoplexy (overall) ([2]; 25 and 50 mg/kg/d oral): merely had such effect at relatively high doses
- neurological deficit scores (effect in words) [3]: improvement
- potency on neurological deficit scores compared among l, dl and d-NBP [3]: no significant difference
- reduction of cerebral infarct area ([3]; first of three doses): 37.9% and 34.8%
- ED50 (cerebral infarct area) [3]: 5.5 mg/kg and 5.7 mg/kg
- cerebral infarct area (effect in words) [3]: significantly reduce
- reduction of cerebral infarct area ([3]; second of three doses): 48.5% and 46.5%
- reduction of cerebral infarct area ([3]; third of three doses): 59.2% and 60.9%
- cerebral infarct area (effect in words) ([4]; 2.5 mg/kg, tendency of reducing): not significant
- reduction of cerebral infarct area ([4]; first of three doses): 29.2%
- decrease of neurological deficit scores ([4]; high dose): 37.5%
- ED30 (neurological deficit scores) [4]: 7.2 mg/kg
- neurological deficit scores (effect in words) [4]: improvement
- decrease of neurological deficit scores ([4]; low dose): 15.6%
- decrease of neurological deficit scores ([4]; moderate dose): 21.9%
- reduction of cerebral infarct area ([4]; second of three doses): 35.2%
- reduction of cerebral infarct area ([4]; third of three doses): 44.4%
- ED40 (cerebral infarct area) [4]: 7.1 mg/kg
- neural symptoms (behavioral changes scored) [5]: no significant effect
- content of Na+ in the brain ([6]; 80 mg/kg oral, decrease seen): no statistical significance
- content of water in the brain ([6]; 80 mg/kg oral, decrease seen): no statistical significance
- content of K+ in the brain ([6]; 80 mg/kg oral, increase seen): no statistical significance
- content of K+ in the brain [6, 7]: no significant effect
- content of Na+ in the brain [6, 7]: no significant effect
- content of water in the brain [6, 7]: no significant effect
- cerebral blood flow rate in normal rats (normal rats): no such effects

Compound: CCCC[C@@H]1OC(=O)c2ccccc21 [l-NBP, L-butylphthalide]
- focal blood flow in the corpus striatum on the side of the blocked cerebral artery ([1]; 15 and 30 mg/kg oral 10 min after operation, vs vehicle control, dose-dependent): significantly increase
- time of the occurrence of cerebral apoplexy ([2]; 25 and 50 mg/kg/d oral from week 8, vs vehicle control): significantly delay
- neurological deficit after cerebral apoplexy [2, 8]: reduce
- viability after the occurrence of cerebral apoplexy [2, 8]: significantly increase
- neurological deficit scores (effect in words) [3]: improvement
- potency on neurological deficit scores compared among l, dl and d-NBP [3]: no significant difference
- effect on cerebral infarct area relative to d-NBP ([3]; as calculated by ED50): about 1.5 times
- reduction of cerebral infarct area ([3]; first of three doses): 40.8%
- ED50 (cerebral infarct area) [3]: 3.8 mg/kg
- cerebral infarct area (effect in words) [3]: significantly reduce
- reduction of cerebral infarct area ([3]; second of three doses): 57.0%
- reduction of cerebral infarct area ([3]; third of three doses): 68.5%
- cerebral infarct area (effect in words) ([4]; 5 and 10 mg/kg, effect increased with dose): significantly reduce
- effect on cerebral infarct area relative to d-NBP ([4]; as calculated by converting into ED50): about 3.1 times
- cerebral infarct area (effect in words) ([4]; dose not given): significantly reduce
- reduction of cerebral infarct area ([4]; first of three doses): 38.4%
- decrease of neurological deficit scores ([4]; high dose): 35.9%
- ED30 (neurological deficit scores) [4]: 6.2 mg/kg
- neurological deficit scores (effect in words) [4]: improvement
- decrease of neurological deficit scores ([4]; low dose): 17.2%
- decrease of neurological deficit scores ([4]; moderate dose): 29.7%
- reduction of cerebral infarct area ([4]; second of three doses): 41.9%
- reduction of cerebral infarct area ([4]; third of three doses): 50.7%
- ED40 (cerebral infarct area) [4]: 3.3 mg/kg
- neural symptoms (behavioral changes scored) [5]: significantly reduced
- content of K+ in the brain [6, 7]: increase
- content of Na+ in the brain [6, 7]: significantly decrease
- content of water in the brain [6, 7]: significantly decrease
- cerebral blood flow rate in normal rats (normal rats): significantly increased
- time after administration till which cerebral blood flow rate was maintained at a relative high level (normal rats; normal rats): 50 min
